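Interpolation was linear, between the two tested concentrations surrounding the appropriate level; five concentrations were tested over 48 hours in 96-well plates. The concentration for 50% growth inhibition is given as GI50. TGI denotes the concentration required for complete inhibition of growth.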
Assays:
Assay in all cases: NCI-60 cell line screen, 48 h
[1] = tested on: 786-0 renal
[2] = tested on: A498 renal
[3] = tested on: ACHN renal
[4] = tested on: CCRF-CEM leukemia
[5] = tested on: DLD-1 colon
[6] = tested on: DMS 114 small cell lung
[7] = tested on: EKVX NSCLC
[8] = tested on: HCC-2998 colon
[9] = tested on: HCT-116 colon
[10] = tested on: HCT-15 colon
[11] = tested on: HOP-62 NSCLC
[12] = tested on: HT29 colon
[13] = tested on: K-562 leukemia
[14] = tested on: KM12 colon
[15] = tested on: KM20L2 colon
[16] = tested on: LOX IMVI melanoma
[17] = tested on: LXFL 529 NSCLC
[18] = tested on: M14 melanoma
[19] = tested on: M19-MEL melanoma
[20] = tested on: MALME-3M melanoma
[21] = tested on: MOLT-4 leukemia
[22] = tested on: NCI-H23 lung
[23] = tested on: NCI-H460 lung
[24] = tested on: NCI-H522 lung
[25] = tested on: OVCAR-3 ovarian
[26] = tested on: OVCAR-4 ovarian
[27] = tested on: OVCAR-5 ovarian
[28] = tested on: OVCAR-8 ovarian
[29] = tested on: RPMI-8226 leukemia
[30] = tested on: RXF 393 renal
[31] = tested on: SF-268 CNS
[32] = tested on: SF-295 CNS
[33] = tested on: SF-539 CNS
[34] = tested on: SK-MEL-28 melanoma
[35] = tested on: SK-OV-3 ovarian
[36] = tested on: SN12C renal
[37] = tested on: SNB-19 CNS
[38] = tested on: SNB-75 CNS
[39] = tested on: SNB-78 CNS
[40] = tested on: SR leukemia
[41] = tested on: TK-10 renal
[42] = tested on: U251 CNS
[43] = tested on: UACC-257 melanoma
[44] = tested on: UACC-62 melanoma
[45] = tested on: UO-31 renal
[46] = tested on: XF 498 CNS
[47] = tested on: A549 NSCLC
[48] = tested on: CAKI-1 renal
[49] = tested on: COLO 205 colon
[50] = tested on: DMS 273 small cell lung
[51] = tested on: HL-60(TB) leukemia
[52] = tested on: HOP-18 NSCLC
[53] = tested on: HOP-92 NSCLC
[54] = tested on: IGROV1 ovarian
[55] = tested on: SK-MEL-5 melanoma
[56] = tested on: SW-620 colon

SMILES: OCC(O)C(OC1OC(CO)C(O)C(O)C1O)c1nn(-c2ccc(Cl)cc2)c2nc3cc(Cl)c(Cl)cc3nc12 (centres undefined)
- TGI [1]: > 100 µM
- TGI [2]: > 100 µM
- TGI [3]: > 100 µM
- TGI [4]: > 100 µM
- TGI [5]: > 100 µM
- TGI [6]: > 100 µM
- TGI [7]: > 100 µM
- TGI [8]: > 100 µM
- TGI [9]: > 100 µM
- TGI [10]: > 100 µM
- TGI [11]: > 100 µM
- TGI [12]: > 100 µM
- TGI [13]: > 100 µM
- TGI [14]: > 100 µM
- TGI [15]: > 100 µM
- TGI [16]: > 100 µM
- TGI [17]: > 100 µM
- TGI [18]: > 100 µM
- TGI [19]: > 100 µM
- TGI [20]: > 100 µM
- TGI [21]: > 100 µM
- TGI [22]: > 100 µM
- TGI [23]: > 100 µM
- TGI [24]: > 100 µM
- TGI [25]: > 100 µM
- TGI [26]: > 100 µM
- TGI [27]: > 100 µM
- TGI [28]: > 100 µM
- TGI [29]: > 100 µM
- TGI [30]: > 100 µM
- TGI [31]: > 100 µM
- TGI [32]: > 100 µM
- TGI [33]: > 100 µM
- TGI [34]: > 100 µM
- TGI [35]: > 100 µM
- TGI [36]: > 100 µM
- TGI [37]: > 100 µM
- TGI [38]: > 100 µM
- TGI [39]: > 100 µM
- TGI [40]: > 100 µM
- TGI [41]: > 100 µM
- TGI [42]: > 100 µM
- TGI [43]: > 100 µM
- TGI [44]: > 100 µM
- TGI [45]: > 100 µM
- TGI [46]: > 100 µM

SMILES: CC(C)CCCC(C)[C@H]1CCC2C3CC=C4C[C@@H](OC(=O)CC(CC(=O)[O-])C(=O)[O-])CC[C@]4(C)C3CC[C@@]21C.N.N.[Pt+4] (some centres undefined)
- GI50 [1]: > 100 µM
- TGI [1]: > 100 µM
- GI50 [2]: > 100 µM
- TGI [2]: > 100 µM
- GI50 [47]: > 100 µM
- TGI [47]: > 100 µM
- GI50 [3]: 47.6 µM
- TGI [3]: > 100 µM
- GI50 [48]: > 100 µM
- TGI [48]: > 100 µM
- GI50 [4]: > 100 µM
- TGI [4]: > 100 µM
- GI50 [49]: > 100 µM
- TGI [49]: > 100 µM
- GI50 [50]: > 100 µM
- TGI [50]: > 100 µM
- GI50 [7]: > 100 µM
- TGI [7]: > 100 µM
- GI50 [9]: > 100 µM
- TGI [9]: > 100 µM
- GI50 [10]: > 100 µM
- TGI [10]: > 100 µM
- GI50 [51]: > 100 µM
- TGI [51]: > 100 µM
- GI50 [52]: > 100 µM
- TGI [52]: > 100 µM
- GI50 [53]: > 100 µM
- TGI [53]: > 100 µM
- GI50 [12]: > 100 µM
- TGI [12]: > 100 µM
- GI50 [54]: > 100 µM
- TGI [54]: > 100 µM
- GI50 [13]: > 100 µM
- TGI [13]: > 100 µM
- GI50 [15]: > 100 µM
- TGI [15]: > 100 µM
- GI50 [16]: > 100 µM
- TGI [16]: > 100 µM
- GI50 [18]: > 100 µM
- TGI [18]: > 100 µM
- GI50 [23]: > 100 µM
- TGI [23]: > 100 µM
- GI50 [25]: > 100 µM
- TGI [25]: > 100 µM
- GI50 [26]: > 100 µM
- TGI [26]: > 100 µM
- GI50 [28]: > 100 µM
- TGI [28]: > 100 µM
- GI50 [29]: > 100 µM
- TGI [29]: > 100 µM
- GI50 [30]: 47.1 µM
- TGI [30]: > 100 µM
- GI50 [32]: > 100 µM
- TGI [32]: > 100 µM
- GI50 [33]: > 100 µM
- TGI [33]: > 100 µM
- GI50 [34]: > 100 µM
- TGI [34]: > 100 µM
- GI50 [55]: > 100 µM
- TGI [55]: > 100 µM
- GI50 [36]: > 100 µM
- TGI [36]: > 100 µM
- GI50 [37]: > 100 µM
- TGI [37]: > 100 µM
- GI50 [38]: > 100 µM
- TGI [38]: > 100 µM
- GI50 [39]: > 100 µM
- TGI [39]: > 100 µM
- GI50 [56]: > 100 µM
- TGI [56]: > 100 µM
- GI50 [41]: > 100 µM
- TGI [41]: > 100 µM
- GI50 [42]: > 100 µM
- TGI [42]: > 100 µM
- GI50 [43]: > 100 µM
- TGI [43]: > 100 µM
- GI50 [44]: > 100 µM
- TGI [44]: > 100 µM
